# From US11358931B2, “Selective androgen receptor modulators (SARMs) and uses thereof” (priority 2007, dated 2022)
# Assays:
# hAR = hAR (Homo sapiens, UniProt P10275); assay: cell-based
# cynomolgus monkeys = assay: 14-day oral toxicity study in cynomolgus monkeys; type: in vivo, cynomolgus monkey
# Method: (§1) A study was performed to determine any potential toxicity and the toxicokinetic profile of Compound 102 when administered orally (via nasal gavage) to cynomolgus monkeys for at least 14 days. The cynomolgus monkey was chosen for this study as it is a non-rodent species that is commonly used for non-clinical toxicity evaluations. Use of the monkey model maximized the likelihood of identifying toxicological responses that may occur in humans. Ten experimentally naïve cynomolgus monkeys (5 male and 5 female) from about 2.5 to 3 years of age and weighing between about 2.3 to about 2.8 kg at Day −1 of the study were assigned to dose groups as shown in Table 6 below.
# (§2) All animals were dosed via nasal gavage once daily for 14 consecutive days. The first day of dosing was designated Day 1 for all animals. The animals were evaluated for clinical signs (evaluation of mortality and morbidity, twice daily), cage side observations and food consumption (once daily), body weight (Days 1, 8 and 14), physical examination (Day −5 and post dosing following the 13/24 hour toxicokinetic collection on Day 14), ophthalmic examination (prestudy and owing the Day 13/24 hour toxicokinetic collection on Day 14), and clinical pathology parameters (serum chemistry, hematology and coagulation on Days −3 and 14), urine samples were collected during necropsy (Day 15) for urinalysis. Blood samples were collected for toxicokinetic analysis at 1, 2, 4, 8, 12 and 24 hours post dose on Days 1 and 13.
# (§3) All ten animals were euthanized one day after the last dose. At termination, a full necropsy was conducted on all animals, and tissues were collected, preserved, processed and examined microscopically by an American College of Veterinary Pathologists (ACVP) certified pathologist.
# (§4) Vehicle was composed of PEG 400/Tween® 80/PVP-K30 (90/5/5, w/w/w). Appropriate amounts of Compound 102 were added to vehicle to prepare the suspension of test compound administered to the animals
# (§5) Blood samples for evaluation of serum chemistry, hematology and coagulation parameters were collected from all animals on Days −3 and 14. Urine samples were obtained by bladder puncture during necropsy. The animals were fasted for at east 8 hours prior to blood collections for serum chemistry. Serum chemistry parameters included alanine aminotransferase (ALT), total protein, aspartate aminotransferase (AST), alkaline phosphatase (ALP), gamma-glutamyltransferase (GGT), albumin, globulin, albumin/globulin ratio, lactate dehydrogenase (LD), glucose, total bilirubin, cholesterol, urea nitrogen (BUN), creatinine, triglycerides, sodium, calcium, potassium, phosphorus, chloride and carbon dioxide. Hematology parameters included red blood cell count, hemoglobin concentration, hematocrit, mean corpuscular volume (MCV), mean corpuscular hemoglobin concentration (MCHC), mean corpuscular hemoglobin (MCH), red cell distribution width, reticulocyte count, platelet count, mean platelet volume (MPV) and white blood cell count. Coagulation parameters included prothrombin time (PT) and activated partial thromboplastin time. Urinalysis parameters included color/character, specific gravity, pH, protein, glucose, ketones, bilirubin, occult blood and microscopics.
# [1] = 14-day oral toxicity study in cynomolgus monkeys; type: in vivo, cynomolgus monkey; conditions: cynomolgus monkey, in vivo, oral, cynomolgus monkeys, nasal gavage once daily 14 days
# Method: as §1, §2, §3, §4, §5
# Sprague-Dawley rats = assay: 14-day oral toxicity study in Sprague Dawley rats; type: in vivo, rat
# Method: (§6) A Sprague Dawley Rat model was used to study oral toxicity and toxicokinetics. Animals were assigned to groups by a stratified randomization scheme designed to achieve similar group mean body weights and the groups were randomly assigned to a dosing to provide control of bias.
# (§7) All animals were dosed via oral gavage once daily for 14 days. The animals were evaluated for changes in clinical signs (mortality/morbidity observations, twice daily), cage side observations (general appearance and behavior), food consumption (quantitatively measured by weighing), body weights, clinical pathology indices including serum chemistry, hematology, coagulation and urinalysis, and other parameters. Blood samples were collected for toxicokinetics analysis from Groups 6-10 at various time points on Days 1 and 14 (Group 6 4 hours post dose; Groups 7-10 at 1, 4 and 12 hours or 2, 8 and 24 hours). The animals were fasted for at least 8 hours prior to blood collections for serum chemistry and urine collection. Serum chemistry parameters tested included alanine aminotransferase, total protein, aspartate aminotransferase, albumin, alkaline phosphatase, globulin, gamma-glutamyl-transferase, albumin/globulin ratio, lactate dehydrogenase, glucose, total bilirubin, cholesterol, urea nitrogen, triglycerides, creatinine, sodium, calcium, potassium, phosphorus and chloride. Hematology parameters analyzed included red blood cell count, reticulocyte count, hemoglobin concentration, red blood cell distribution width, mean corpuscular volume, mean platelet volume, mean corpuscular hemoglobin concentration, white blood cell count and differentials and mean corpuscular hemoglobin. Urinalysis parameters included color/character, ketones, specific gravity, bilirubin, pH, occult blood, protein, glucose and microscopics. Main study animals were euthanized on Day 15. At termination, a full necropsy was conducted and all tissues were collected, preserved, processes and examined microscopically from Groups 1 and 5, and target organs (liver and kidney) from Groups 2-4, by a veterinary pathologist certified by the American College of Veterinary Pathologists.
# (§8) Control vehicle included Peg-400 (Sigma P-3265), Tween 80 (Sigma P-8074) and PVP-K30 (polyvinyl pyrrolidone or povidone K-30, Spectrum PN P1454) at a ratio of 90:5:5, w/w/w. Appropriate amounts of Compound 102 were added to the control vehicle to produce homogeneous dosing solutions/suspensions.
# [2] = 14-day oral toxicity study in Sprague Dawley rats; type: in vivo, rat; conditions: Sprague-Dawley, rat, in vivo; SD rats, oral gavage once daily for 14 days; read-out: No-observed-adverse-effect level (NOAEL)
# Method: as §6, §7, §8
# Sequence of hAR (P10275 whole entry): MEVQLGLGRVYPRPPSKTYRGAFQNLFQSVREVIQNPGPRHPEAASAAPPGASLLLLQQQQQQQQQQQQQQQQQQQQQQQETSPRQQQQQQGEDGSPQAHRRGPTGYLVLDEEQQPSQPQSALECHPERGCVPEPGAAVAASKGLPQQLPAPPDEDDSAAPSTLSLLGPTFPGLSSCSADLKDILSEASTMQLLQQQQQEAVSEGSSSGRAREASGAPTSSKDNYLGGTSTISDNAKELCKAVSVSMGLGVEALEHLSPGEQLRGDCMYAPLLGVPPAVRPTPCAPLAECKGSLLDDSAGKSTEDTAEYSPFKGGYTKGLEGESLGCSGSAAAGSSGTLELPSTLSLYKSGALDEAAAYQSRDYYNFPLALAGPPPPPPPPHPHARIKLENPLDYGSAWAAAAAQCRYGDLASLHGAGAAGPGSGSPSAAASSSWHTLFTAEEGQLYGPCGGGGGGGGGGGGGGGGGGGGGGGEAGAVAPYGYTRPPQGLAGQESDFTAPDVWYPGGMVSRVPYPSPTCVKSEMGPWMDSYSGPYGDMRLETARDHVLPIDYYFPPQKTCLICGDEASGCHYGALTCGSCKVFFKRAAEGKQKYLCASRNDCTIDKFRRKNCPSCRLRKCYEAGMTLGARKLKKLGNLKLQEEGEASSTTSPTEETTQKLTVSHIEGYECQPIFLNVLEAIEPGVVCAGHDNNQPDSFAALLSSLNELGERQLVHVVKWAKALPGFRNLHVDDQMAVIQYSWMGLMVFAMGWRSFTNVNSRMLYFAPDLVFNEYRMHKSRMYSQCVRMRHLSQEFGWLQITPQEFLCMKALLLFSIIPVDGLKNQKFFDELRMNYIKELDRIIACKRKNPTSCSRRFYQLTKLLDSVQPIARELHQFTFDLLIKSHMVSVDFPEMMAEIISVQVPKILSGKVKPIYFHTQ
smiles,measurement,setting,value
"N#Cc1ccc(N2CCC[C@@H]2[C@@H](O)C(F)(F)F)cc1C(F)(F)F [Compound 102, R,R-4-(2-(1-Hydroxyl-2,2,2-trifluoroethyl)-pyrrolidinyl)-2-trifluoromethyl-benzonitrile]",EC50,hAR,3.1 nM
same,Emax,"hAR; MDA-MB-453, read-out: efficacy relative to dihydrotestosterone (DHT)",59%
same,platelet counts lower on Day 14 relative to Day −3,"cynomolgus monkeys; 5, 50 and 150 mg/kg males and females and 450 mg/kg female",14% to 38%
same,serum cholesterol concentration,"cynomolgus monkeys; Day 14, all dosed animals",decreased
same,prothrombin time longer than Day −3,"cynomolgus monkeys; Day 14, all dosed animals except the 5 mg/kg female",1.8 to 3.5 s
same,microscopic findings (histopathology),cynomolgus monkeys; all dose levels,no direct Compound 102-related microscopic findings
same,ophthalmic examinations,cynomolgus monkeys; all dose levels,no Compound 102-related findings
same,urinalysis parameters,cynomolgus monkeys; all dose levels,no Compound 102-related effects
same,body weight,cynomolgus monkeys; all dosed animals relative to controls,dose-independent increase in body weight
same,gross necropsy findings,cynomolgus monkeys; both sexes at 150 and 450 mg/kg,decreased thymus size and brown discoloration of the adrenals
same,NOEL,"cynomolgus monkeys; cynomolgus monkeys, 14 days",not achieved
same,"mortality, clinical signs, food consumption, histologic effects","cynomolgus monkeys; daily administration for 14 days, all dose levels","did not result in mortality, adverse clinical signs or changes in food consumption or histologic effects"
same,serum ALT and AST activity,"cynomolgus monkeys; female animal dosed with 450 mg/kg, after 14 days",elevated
same,thymus histology,"cynomolgus monkeys; males at 150 mg/kg and above, females at 50 mg/kg and above, considered secondary to stress",Minimal to mild lymphoid cortical depletion of the thymus
same,NOAEL at 14 days,"[1]; female, females",150 mg/kg
same,NOAEL at 14 days,"[1]; male, males",450 mg/kg
same,morbidity / early death,"Sprague-Dawley rats; 10, 100, 300 or 700 mg/kg/day, 14 days",not associated with test article-related morbidity or early death
same,macroscopic or microscopic changes (postmortem),Sprague-Dawley rats; 10-700 mg/kg/day,no macroscopic or microscopic changes
same,urinalysis parameters,Sprague-Dawley rats; 10-700 mg/kg/day,no alterations
same,liver weight,"Sprague-Dawley rats; both sexes, not correlated with hepatocellular size or liver pathology",Dose-dependent liver weight increases
same,food consumption,"Sprague-Dawley rats; female animals, all dose levels",statistically significant increase in food consumption
same,alkaline phosphatase values and phosphorus concentrations,Sprague-Dawley rats; female rats dosed at ≥10 mg/kg/day,minimally higher
same,reticulocyte counts and red cell distribution width,Sprague-Dawley rats; female rats ≥10 mg/kg/day,higher reticulocyte counts and red cell distribution width
same,platelet counts,"Sprague-Dawley rats; females ≥100 mg/kg/day, males 10 and 700 mg/kg/day",increased with statistical significance
same,prothrombin time,"Sprague-Dawley rats; male and female animals, 300 and 700 mg/kg/day",minimal prolongation
same,body weight gain,"Sprague-Dawley rats; male and female animals, versus control",increased weight gain compared to control animals
same,triglyceride concentrations,"Sprague-Dawley rats; male rats ≥100 mg/kg/day, female rats ≥300 mg/kg/day",minimally lower
same,potassium levels,"Sprague-Dawley rats; male rats ≥300 mg/kg/day, female rats ≥100 mg/kg/day",minimally higher
same,clinical observations,Sprague-Dawley rats; particularly female animals at ≥100 mg/kg/day,increased incidence and frequency in rough hair coat and nasal discharge
same,NOAEL at 14 days,[2],700 mg/kg/day
